Reference: patent US20170144987A1, “NOVEL CRYSTALLINE POLYMORPHS OF PYRIDINE DERIVATIVE AND METHOD FOR PRODUCING THE SAME” (TEIJIN PHARMA LIMITED, priority 2014, published 2017)

Assays:
human URAT1 = target: T1, human URAT1 (Homo sapiens, UniProt Q96S37); assay: Test for inhibition of uric acid transport using human URAT1-expressing cells; format: cell-based; settings: HEK 293 cells expressing human URAT1; 14C-labeled uric acid 25 μM; uptake 37° C. for 5 min; read-out: IC50 (concentration of the compound at which the uric acid transport rate is inhibited by 50%)
T1 construct: Full-length cDNA of human URAT1 (hURAT1)
T1 sequence (Q96S37 1-553): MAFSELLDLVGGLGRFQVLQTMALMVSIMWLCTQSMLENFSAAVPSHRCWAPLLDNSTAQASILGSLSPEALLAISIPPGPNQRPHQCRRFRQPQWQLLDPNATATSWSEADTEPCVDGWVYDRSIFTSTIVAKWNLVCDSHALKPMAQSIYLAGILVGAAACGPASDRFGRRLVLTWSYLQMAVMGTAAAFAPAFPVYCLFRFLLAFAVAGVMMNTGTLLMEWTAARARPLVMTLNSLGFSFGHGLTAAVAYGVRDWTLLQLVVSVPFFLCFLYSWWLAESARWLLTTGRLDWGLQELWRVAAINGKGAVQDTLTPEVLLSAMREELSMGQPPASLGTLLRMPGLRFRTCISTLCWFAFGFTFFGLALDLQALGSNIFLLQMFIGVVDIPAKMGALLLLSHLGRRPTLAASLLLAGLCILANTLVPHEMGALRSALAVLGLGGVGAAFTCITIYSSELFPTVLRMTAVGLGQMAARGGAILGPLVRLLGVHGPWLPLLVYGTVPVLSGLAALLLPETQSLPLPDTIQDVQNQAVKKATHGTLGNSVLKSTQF
Procedure: Test for Inhibition of Uric Acid Transport Using Human URAT1-Expressing Cells
2-(5-chloropyridin-3-yl)-1-(2,5-dichlorobenzyl)-4-methyl-1H-imidazole-5-carboxylic acid was dissolved in DMSO (produced by Sigma) to a concentration of 20 mM and the concentration was subsequently adjusted to a value desired for use. Full-length cDNA of human URAT1 (hURAT1) (produced by OriGene Technologies, Inc., NCBI Reference Sequence: NM 144585) was subcloned into an expression vector, pCMV6-Kan/Neo (produced by OriGene Technologies, Inc.), and hURAT1 gene was transfected into human embryonic kidney-derived cells (HEK 293 cells) by liposome method using Lipofectamine 2000 (produced by Invitrogen Corporation), whereupon HEK 293 cells expressing human URAT1 gene were selected on the basis of Geneticin resistance. […]
After the medium was removed by aspiration from each well, the medium was replaced with a solution obtained by substituting NaCl in Hank's Balanced Salt Solution (HBSS) with Na gluconate (hereinafter, HBSS/Na-gluconate) and the cells were preincubated at 37° C. for about 10 minutes. […] The cell sample and a liquid scintillation liquid, ULTIMA GOLD (produced by PerkinElmer, Inc.) were mixed and the radioactivity was measured by a liquid scintillation counter (Beckman Coulter, Inc.). […]

Cebus apella = assay: Drug efficacy evaluation test for Cebus apella (uric acid excretion rate); format: in vivo; settings: 3 mg/kg to 30 mg/kg in 0.5% methylcellulose, administered from the nasal cavity to the stomach, samples up to 24 hours
Procedure: Drug Efficacy Evaluation Test for Cebus Apella 2-(5-chloropyridin-3-yl)-1-(2,5-dichlorobenzyl)-4-methyl-1H-imidazole-5-carboxylic acid (3 mg/kg to 30 mg/kg) dispersed in a 0.5% methylcellulose solution was administered to Cebus apella from the nasal cavity to the stomach using a disposable catheter and a syringe barrel. Blood samples were taken before administration and 30 minutes, 1 hour, 2 hours, 4 hours, 8 hours, 12 hours, and 24 hours after administration; and urine samples were collected for the time intervals of immediately after to 4 hours after administration, from 4 hours to 8 hours after administration, from 8 hours to 16 hours after administration, and from 16 hours to 24 hours after administration. Concentrations of uric acid and creatinine in the blood and urine samples collected were measured by an automatic analyzer (JEOL Ltd.). Uric acid and […] were measured using L-type Wako UA•F (Wako Pure Chemicals Industries, Ltd.) and L-type Creatine F (Wako Pure Chemicals Industries, Ltd.), respectively. Uric acid clearance was calculated from the uric acid concentrations in blood and urine and, similarly, creatinine clearance was calculated from the creatinine concentrations.

IC50 (human URAT1): ≤ 0.2 µM
SMILES: Cc1nc(-c2cncc(Cl)c2)n(Cc2cc(Cl)ccc2Cl)c1C(=O)O [2-(5-chloropyridin-3-yl)-1-(2,5-dichlorobenzyl)-4-methyl-1H-imidazole-5-carboxylic acid]
activity to promote uric acid excretion (uric acid excretion rate) (Cebus apella): excellent activity to promote uric acid excretion
